# According to PubChem BioAssay (NCI):
#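 All cell lines were grown in 96-well plates and treated with compound for 48 hours. TGI marks complete inhibition of growth.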
# Assays:
# Experiment in all cases: inhibition of tumour cell growth, NCI panel, 48 h
# [1] = system: OVCAR-8 ovarian
# [2] = system: BT-549 breast
# [3] = system: HT29 colon
# [4] = system: HOP-92 NSCLC
# [5] = system: NCI-H522 lung
# [6] = system: MDA-N
# [7] = system: NCI-H460 lung
# [8] = system: OVCAR-3 ovarian
# [9] = system: SK-OV-3 ovarian
# [10] = system: HL-60(TB) leukemia
# [11] = system: RPMI-8226 leukemia
# [12] = system: SR leukemia
SMILES,TGI [1],TGI [2],TGI [3],TGI [4],TGI [5],TGI [6],TGI [7],TGI [8],TGI [9],TGI [10],TGI [11],TGI [12]
C=C(Cl)CN1c2ccccc2C=Cc2ccccc21,> 100 µM,> 100 µM,56.4 µM,61.2 µM,82 µM,64.1 µM,16.2 µM,33.9 µM,> 100 µM,,,
CCOP(=O)(Cc1nc(C#N)c(N)o1)OCC,,,> 100 µM,> 100 µM,> 100 µM,> 100 µM,> 100 µM,> 100 µM,> 100 µM,> 100 µM,> 100 µM,> 100 µM
CCN(CC)C(=O)c1cc([N+](=O)[O-])c(=O)n2c1[nH]c1ccccc12,> 100 µM,,> 100 µM,> 100 µM,> 100 µM,> 100 µM,> 100 µM,> 100 µM,> 100 µM,> 100 µM,> 100 µM,> 100 µM
O=C1c2cc3ncsc3cc2C(=O)c2c(O)ccc(O)c21,> 100 µM,> 100 µM,> 100 µM,> 100 µM,> 100 µM,> 100 µM,> 100 µM,> 100 µM,,,> 100 µM,> 100 µM
Nc1c(C(=O)O)nnc2cc(Cl)ccc12,> 100 µM,> 100 µM,> 100 µM,,> 100 µM,> 100 µM,> 100 µM,> 100 µM,> 100 µM,> 100 µM,,> 100 µM
NC(=S)NS(=O)(=O)c1ccc(Cl)cc1,> 100 µM,> 100 µM,> 100 µM,,> 100 µM,> 100 µM,> 100 µM,> 100 µM,> 100 µM,> 100 µM,> 100 µM,
OC(CCl)CN1CC[N+]2(CC1)CC[N+]1(CCN(CC(O)CCl)CC1)CC2 (stereo not given),> 50 µM,,> 50 µM,> 50 µM,> 50 µM,,> 50 µM,> 50 µM,> 50 µM,> 50 µM,> 50 µM,> 50 µM
CC(C)N1[C@@H]2CCCC[C@H]2N(C(C)C)[P+]1=O,> 100 µM,,> 100 µM,> 100 µM,> 100 µM,> 100 µM,> 100 µM,> 100 µM,> 100 µM,,> 100 µM,> 100 µM
Cc1ccc2c(c1)Nc1ccccc1P2(=O)O,> 100 µM,,> 100 µM,> 100 µM,> 100 µM,> 100 µM,> 100 µM,> 100 µM,> 100 µM,> 100 µM,,> 100 µM
COc1ccc(/C=C(/c2ccc(OC)cc2)c2c(Cl)cc(Cl)c(/C(=C\c3ccc(OC)cc3)c3ccc(OC)cc3)c2N=Nc2ccccc2)cc1,> 100 µM,> 100 µM,> 100 µM,> 100 µM,> 100 µM,,> 100 µM,> 100 µM,> 100 µM,> 100 µM,> 100 µM,
O=C(NNc1nc(-c2ccccc2)cs1)Nc1ccccc1,46.8 µM,60.9 µM,76.2 µM,,,65.8 µM,50.6 µM,50.2 µM,52.2 µM,,44.2 µM,
Cc1ccc(S(=O)(=O)N/N=C\c2c3ccccc3[n+](C)c3ccccc23)cc1,> 100 µM,,62.6 µM,73.2 µM,> 100 µM,,50.3 µM,71.5 µM,> 100 µM,59.6 µM,> 100 µM,
Cc1ccsc1/C=N/Nc1cc(C)c2ccccc2n1,32.7 µM,44.8 µM,15 µM,28.1 µM,,29.3 µM,,26.6 µM,35.6 µM,34.4 µM,8.9 µM,
CC(C)=C=CP(=O)(O)c1ccccc1,> 100 µM,,> 100 µM,> 100 µM,> 100 µM,> 100 µM,> 100 µM,> 100 µM,> 100 µM,> 100 µM,,> 100 µM
COc1ccc(/C=C2\OC(=O)C(Cl)=C2c2ccc(OC)c(Cl)c2)cc1,60.8 µM,,> 100 µM,46.1 µM,79 µM,47.1 µM,59 µM,43.7 µM,> 100 µM,> 100 µM,81.8 µM,> 100 µM
CCN(CCC#N)C(=O)Nc1ccccc1,> 100 µM,> 100 µM,> 100 µM,> 100 µM,> 100 µM,> 100 µM,> 100 µM,> 100 µM,> 100 µM,,> 100 µM,
Nc1ccc(C(=O)O)cc1,> 100 µM,,> 100 µM,> 100 µM,> 100 µM,> 100 µM,> 100 µM,> 100 µM,,> 100 µM,> 100 µM,> 100 µM
Nc1ncc2c(n1)-c1ccccc1OC2,> 100 µM,,> 100 µM,> 100 µM,> 100 µM,,> 100 µM,> 100 µM,> 100 µM,> 100 µM,> 100 µM,
CC1C(c2ccccc2)NC(c2ccccc2)CC1(N)C#N (stereo not given),> 100 µM,> 100 µM,> 100 µM,> 100 µM,> 100 µM,> 100 µM,> 100 µM,> 100 µM,> 100 µM,> 100 µM,,> 100 µM
N#Cc1c(N2CCCC2)nsc1Nc1ccccc1,> 100 µM,,> 100 µM,> 100 µM,,> 100 µM,> 100 µM,,,> 100 µM,> 100 µM,> 100 µM
COc1cc2nc(-c3cccs3)nc(N3C(c4cc(OC)c(OC)c(OC)c4)=NNC(=O)c4ccccc43)c2cc1OC,> 100 µM,39.6 µM,> 100 µM,> 100 µM,> 100 µM,,> 100 µM,50.2 µM,> 100 µM,> 100 µM,,> 100 µM
